Assay results from US7189701B1, “Tetrapeptide stimulating functional activity of neurons pharmacological agent based thereon and method of use thereof” (Sankt-Petersburgskaya Obschestvennaya Organizatsiya …, priority 1999, dated 2007).
Residues, ends and D or L forms follow the SMILES beside them.

Columns and labels:
Type in all cases: in vivo
white unbred male mice = assay: Acute toxicity according to Kerber, single intramuscular administration
Source text: Possible toxic effects of L-Ala-L-Glu-L-Asp-L-Pro (SEQ ID NO:1) tetrapeptide on the organism were studied in compliance with “The rules of preclinical estimation of safety of pharacological agents” (GLP) approved by the Department of State Control on Medicinal Agents and Medical Equipment of the Russian Federation of Dec. 29, 1997.
Objective of the study consisted in defining the tolerable toxic drug doses of the agent, estimating the stage and character of pathologic alterations in various organs and systems and in exploring the correlation between the toxic effects and the dose and duration of the drug application.
Acute toxicity of L-Ala-L-Glu-L-Asp-L-Pro (SEQ ID NO:1) tetrapeptide was determined according to Kerber. The study was performed on 66 white unbred male mice weighing 20 to 23 g kept in vivarium under standard regimen and fed upon standard rations. The animals were randomly divided into 6 equal groups by 11 mice in each. The animals were subject to a single intramuscular administration of 0.25 ml of the preparation in doses 1 mg/kg, 2 mg/kg, 3 mg/kg, 4 mg/kg, 5 mg/kg (several thousand times exceeding the therapeutic dose recommended for clinical trials). The control animals were administered the similar amount of saline.

rats [1] = assay: Chronic toxicity, 6 months intramuscular
Protocol: Chronic toxicity of L-Ala-L-Glu-L-Asp-L-Pro (SEQ ID NO:1) tetrapeptide obtained by the claimed method was investigated by means of a long-term administration thereof to rats weighing 150–250 g. The animals were subject to daily intramuscular administration of the drug in doses 1 μg/kg, 0.1 mg/kg, 1 mg/kg in 0.5 ml of saline for 6 months. Animals' behaviour, food and water consumption, the state of hair integument and mucous membranes were registered. The animals were weighed daily for the first 3 months of the experiment and then—once a month. Haematological and biochemical investigations were conducted in 3 months after the onset of the drug administration and on the experiment completion. Functions of the cardiovascular system, liver, pancreas, kidneys and adrenal glands were assessed. After the treatment completion some animals were subject to pathomorphologic examination with the purpose to estimate the state of different sections of the brain and bone marrow, heart, aorta, lungs, liver, kidneys, endocrine and immune organs.

rats [2] = assay: Toxic effects of neurotropic agents (apomorphine, haloperidol, nicotine, caffeine), spontaneous motional activity
Protocol: Investigated was the action of L-Ala-L-Glu-L-Asp-L-Pro tetrapeptide on the toxic effects of neurotropic agents of various pharmacological groups.
In an hour after an intramuscular injection of saline (control) or L-Ala-L-Glu-L-Asp-L-Pro tetrapeptide (5 μg/kg) the rats were intraperitoneally administered toxic doses of different neuropharmacological agents (apomorphine, haloperidol, nicotine and caffeine). Thereby, the parameters of vertical (anxiety) and horizontal (locomotor activity) spontaneous motional activity were registered.

rats [3] = assay: Serotonin metabolism in the brain, model of electrically induced pain stress
Protocol: In an hour the content of serotonin and its metabolite, 5-oxyindoleacetic acid, was measured in the parietal and posterior frontal regions of the brain.
Compensatory in character, the stimulation of serotonin metabolism diminishes the emotional perception of a pain impact, Natural “drawback” of the said mechanism consists in a quick transition to the state of decompensation. In control (untreated stress) the level of serotonin lowered, while that of 5-oxyindoleacetic acid rose (metabolic depletion phase).

[4] = system: mice subject to ethanol-induced amnestic impact; assay: CRPA in mice subject to ethanol-induced amnestic impact
Protocol: Nootropic activity of L-Ala-L-Glu-L-Asp-L-Pro tetrapeptide was studied with the application of the conditioned reflex of passive avoidance (CRPA) in the intact animals and under the conditions of amnestic impacts (electroconvulsive treatment and ethanol intoxication).
The experiments were carried out on male mice weighing 20 to 24 g. For each animal the period of stay in dark and lighted chamber departments was registered during 2 min. before the training. […] The animals were trained by means of applying an electric pain stimulus in the preferred dark department, which lasted until the animal left this department. L-Ala-L-Glu-L-Asp-L-Pro tetrapeptide was introduced intraperitoneally 60 min. before the training. Testing was performed in 2 and 24 hours after the training. The period the animal stayed in the dark and lighted chamber departments and the number of animals not entering the dark department (“educated” animals) were recorded.
Ethanol was administered to the mice orally for 13 days in the form of a 10% solution. Training was held twice: on the 14th day of ethanol administration and in 24 hours after the first training. L-Ala-L-Glu-L-Asp-L-Pro tetrapeptide was administered intraperitoneally 30 min. before the training. Testing was performed in 2 and 24 hours after the first and second training sessions.

[5] = 5 μg/kg intramuscular 1 hour before toxic dose of caffeine i.p.
[6] = 5 μg/kg, post-stress introduction, measured in an hour
[7] = 1: in 2 hours after the training
[8] = 2: in 24 hours after the training
[9] = 3: in 2 hours after the repeated training
[10] = 4: in 24 hours after the repeated training

With C[C@H](N)C(=O)N[C@@H](CCC(=O)O)C(=O)N[C@@H](CC(=O)O)C(=O)N1CCC[C@H]1C(=O)O [L-Ala-L-Glu-L-Asp-L-Pro tetrapeptide, L-Alanyl-L-Glutamyl-L-Aspartyl-L-Proline] (H-AEDP-OH) the acute toxic reactions (white unbred male mice; doses several thousand times exceeding the therapeutic one) was “did not induce any acute toxic reactions”, the “alterations in the general state, behaviour, motional activity, hair and skin integument, physiologic discharges” value (white unbred male mice; single intramuscular 1-5 mg/kg) was “No alterations” and the death of mice (white unbred male mice; single intramuscular 1-5 mg/kg, within 72 hours and in 14 days) was “none of the mice in either of the groups died”. For the same molecule, the “side effects, chronic toxicity” value (rats [1]; intramuscular daily for 6 months, 1 μg/kg, 0.1 mg/kg, 1 mg/kg) was “absence of any side effects”, the “pathologic alterations (general state, peripheral blood indices, intrinsic organs, cardiovascular and respiratory systems, liver and kidney functions)” value (rats [1]; prolonged intramuscular administration to rats) was “no pathologic alterations” and the “effect on apomorphine toxic effects (anxiety, locomotor activity)” value (rats [2]; 5 μg/kg intramuscular 1 hour before toxic dose of apomorphine i.p.) was “diminished anxiety and locomotor activity”. The “effect on caffeine-induced anxiety” value (rats [2]; [5]) was “lowered caffeine-induced anxiety”, the “effect on locomotor activity after caffeine” value (rats [2]; [5]) was “did not affect locomotor activity” and the “effect on haloperidol toxic effects (anxiety, locomotor activity)” value (rats [2]; 5 μg/kg intramuscular 1 hour before toxic dose of haloperidol i.p.) was “increased anxiety and locomotor activity”. The “effect on nicotine toxic effects (anxiety)” value (rats [2]; 5 μg/kg intramuscular 1 hour before toxic dose of nicotine i.p.) was “decreased the influence of nicotine on the animals' anxiety”, the “content of 5-oxyindoleacetic acid in the brain” value (rats [3]; [6]) was “diminished” and the “content of serotonin in the brain” value (rats [3]; [6]) was “increased”. The “levels of serotonin and its metabolite” value (rats [3]; intact animals) was “did not induce any changes”, the “Total period of stay in the dark chamber” value [4, 7] was 47.8 ± 5.7 s and the “Trained animals (%)” value [4, 7] was 13%. The “Total period of stay in the dark chamber” value [4, 8] was 41.6 ± 5.8 s, the “Trained animals (%)” value [4, 8] was 31% and the “Total period of stay in the dark chamber” value [4, 9] was 13.7 ± 5.7 s. For the same molecule, the “Trained animals (%)” value [4, 9] was 77%, the “Total period of stay in the dark chamber” value [4, 10] was 7.6 ± 5.7 s and the “Trained animals (%)” value [4, 10] was 86%.
